Values after ≈ are worked out from the molar mass of the structure shown.
What was measured:
[1] = target: T1, Carnitine O-palmitoyltransferase 1, muscle isoform (Homo sapiens, UniProt Q92523); experiment: SUPPLEMENTARY: Inhibition of Carnitine palmitoyltransferase 1, muscle isoform; parameters: species or system Muscle tissue
T1 sequence (Q92523 whole entry): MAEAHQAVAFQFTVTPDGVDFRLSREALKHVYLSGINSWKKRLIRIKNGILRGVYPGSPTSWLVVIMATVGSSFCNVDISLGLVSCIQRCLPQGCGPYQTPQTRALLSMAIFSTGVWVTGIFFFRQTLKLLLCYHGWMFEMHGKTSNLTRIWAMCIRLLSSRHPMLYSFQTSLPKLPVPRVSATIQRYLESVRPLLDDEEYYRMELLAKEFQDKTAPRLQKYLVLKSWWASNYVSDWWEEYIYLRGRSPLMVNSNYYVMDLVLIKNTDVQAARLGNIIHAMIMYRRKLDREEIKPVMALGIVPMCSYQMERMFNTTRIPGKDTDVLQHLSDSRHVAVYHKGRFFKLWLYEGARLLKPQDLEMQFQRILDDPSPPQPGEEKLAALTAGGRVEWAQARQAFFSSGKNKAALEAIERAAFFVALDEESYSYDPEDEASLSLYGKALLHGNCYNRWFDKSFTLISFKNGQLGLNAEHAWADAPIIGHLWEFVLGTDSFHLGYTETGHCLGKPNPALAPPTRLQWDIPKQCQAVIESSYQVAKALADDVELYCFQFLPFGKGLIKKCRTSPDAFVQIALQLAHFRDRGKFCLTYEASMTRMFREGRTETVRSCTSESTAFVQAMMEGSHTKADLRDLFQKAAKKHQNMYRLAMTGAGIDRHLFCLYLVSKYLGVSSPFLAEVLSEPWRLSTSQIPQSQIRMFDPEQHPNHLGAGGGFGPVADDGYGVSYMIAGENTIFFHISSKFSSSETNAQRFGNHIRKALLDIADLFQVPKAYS

[2] = SUPPLEMENTARY: Lipophilicity (log D) Determination by high-throughput shake-flask; assay type: physicochemical; conditions: octanol/water
[3] = target: T2, Carnitine O-palmitoyltransferase 1, liver isoform (Rattus norvegicus, UniProt P32198); experiment: (§1) SUPPLEMENTARY: Inhibition of Carnitine palmitoyltransferase 1, liver isoform
T2 sequence (P32198 whole entry): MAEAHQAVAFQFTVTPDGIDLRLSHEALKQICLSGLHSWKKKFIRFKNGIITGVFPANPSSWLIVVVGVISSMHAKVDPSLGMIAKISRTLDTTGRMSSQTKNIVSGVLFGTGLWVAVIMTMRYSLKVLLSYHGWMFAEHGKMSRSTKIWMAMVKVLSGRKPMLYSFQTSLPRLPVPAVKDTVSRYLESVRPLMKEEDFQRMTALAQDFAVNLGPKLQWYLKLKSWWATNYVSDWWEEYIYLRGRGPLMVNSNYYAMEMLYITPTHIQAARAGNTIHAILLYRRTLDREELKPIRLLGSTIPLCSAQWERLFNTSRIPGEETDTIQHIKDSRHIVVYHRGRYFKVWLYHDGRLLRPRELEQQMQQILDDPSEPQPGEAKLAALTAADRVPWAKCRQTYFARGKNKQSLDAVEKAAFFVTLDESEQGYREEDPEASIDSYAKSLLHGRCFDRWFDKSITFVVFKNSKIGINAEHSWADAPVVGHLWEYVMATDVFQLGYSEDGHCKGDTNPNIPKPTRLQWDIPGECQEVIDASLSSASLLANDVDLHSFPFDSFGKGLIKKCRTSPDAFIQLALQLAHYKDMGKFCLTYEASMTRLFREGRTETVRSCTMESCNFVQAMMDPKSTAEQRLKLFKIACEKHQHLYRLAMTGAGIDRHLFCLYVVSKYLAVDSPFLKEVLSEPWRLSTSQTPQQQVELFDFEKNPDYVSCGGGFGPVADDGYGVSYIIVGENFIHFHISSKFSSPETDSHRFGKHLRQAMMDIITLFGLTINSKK

[4] = target: T3, Carnitine O-palmitoyltransferase 1, liver isoform (Homo sapiens, UniProt P50416); experiment: as §1
T3 sequence (P50416 whole entry): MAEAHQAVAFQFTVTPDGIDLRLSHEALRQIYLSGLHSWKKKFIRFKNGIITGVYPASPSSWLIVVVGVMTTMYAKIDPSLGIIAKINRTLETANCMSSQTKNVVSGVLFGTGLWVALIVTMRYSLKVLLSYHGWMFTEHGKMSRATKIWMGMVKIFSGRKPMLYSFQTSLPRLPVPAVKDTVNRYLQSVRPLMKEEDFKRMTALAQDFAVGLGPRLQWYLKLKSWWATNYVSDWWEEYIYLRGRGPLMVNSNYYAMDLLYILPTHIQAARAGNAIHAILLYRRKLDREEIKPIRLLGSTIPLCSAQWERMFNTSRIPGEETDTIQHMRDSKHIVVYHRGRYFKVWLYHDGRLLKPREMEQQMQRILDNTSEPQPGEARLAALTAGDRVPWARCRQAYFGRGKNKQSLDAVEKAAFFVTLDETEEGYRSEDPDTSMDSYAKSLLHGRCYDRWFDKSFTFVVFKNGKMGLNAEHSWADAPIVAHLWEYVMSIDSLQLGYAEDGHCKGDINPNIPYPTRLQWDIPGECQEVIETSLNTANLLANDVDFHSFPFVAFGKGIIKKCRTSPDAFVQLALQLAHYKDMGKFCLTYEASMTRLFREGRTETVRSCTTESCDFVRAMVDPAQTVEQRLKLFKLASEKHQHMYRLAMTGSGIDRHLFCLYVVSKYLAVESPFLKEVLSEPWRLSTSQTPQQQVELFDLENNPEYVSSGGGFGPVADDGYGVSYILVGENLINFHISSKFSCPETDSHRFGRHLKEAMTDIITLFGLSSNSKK

[5] = SUPPLEMENTARY: Lyophilisation Solubility Assay (LYSA); assay type: physicochemical; conditions: read-out: Kinetic_solubility
[6] = target: T4, Carnitine O-palmitoyltransferase 2, mitochondrial (Rattus norvegicus, UniProt P18886); experiment: (§2) SUPPLEMENTARY: Inhibition of Carnitine palmitoyltransferase 2
T4 sequence (P18886 whole entry): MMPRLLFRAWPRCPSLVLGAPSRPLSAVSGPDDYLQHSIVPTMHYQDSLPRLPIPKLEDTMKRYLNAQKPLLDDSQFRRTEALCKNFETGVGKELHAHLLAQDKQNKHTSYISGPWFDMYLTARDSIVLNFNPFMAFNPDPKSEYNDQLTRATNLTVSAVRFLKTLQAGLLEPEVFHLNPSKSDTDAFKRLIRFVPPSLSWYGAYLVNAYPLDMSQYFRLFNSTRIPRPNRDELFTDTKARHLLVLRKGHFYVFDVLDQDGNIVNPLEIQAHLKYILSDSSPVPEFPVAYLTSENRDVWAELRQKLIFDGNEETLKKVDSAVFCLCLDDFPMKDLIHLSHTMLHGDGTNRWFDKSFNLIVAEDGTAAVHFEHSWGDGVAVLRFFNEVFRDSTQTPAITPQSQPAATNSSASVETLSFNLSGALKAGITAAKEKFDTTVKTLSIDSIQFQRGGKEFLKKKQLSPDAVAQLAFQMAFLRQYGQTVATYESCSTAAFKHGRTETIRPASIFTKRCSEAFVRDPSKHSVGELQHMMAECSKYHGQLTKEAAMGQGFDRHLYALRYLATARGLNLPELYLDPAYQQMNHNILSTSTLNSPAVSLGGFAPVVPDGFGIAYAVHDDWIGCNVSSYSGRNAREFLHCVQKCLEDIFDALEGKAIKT

[7] = target: T5, Carnitine O-palmitoyltransferase 2, mitochondrial (Homo sapiens, UniProt P23786); experiment: as §2
T5 sequence (P23786 whole entry): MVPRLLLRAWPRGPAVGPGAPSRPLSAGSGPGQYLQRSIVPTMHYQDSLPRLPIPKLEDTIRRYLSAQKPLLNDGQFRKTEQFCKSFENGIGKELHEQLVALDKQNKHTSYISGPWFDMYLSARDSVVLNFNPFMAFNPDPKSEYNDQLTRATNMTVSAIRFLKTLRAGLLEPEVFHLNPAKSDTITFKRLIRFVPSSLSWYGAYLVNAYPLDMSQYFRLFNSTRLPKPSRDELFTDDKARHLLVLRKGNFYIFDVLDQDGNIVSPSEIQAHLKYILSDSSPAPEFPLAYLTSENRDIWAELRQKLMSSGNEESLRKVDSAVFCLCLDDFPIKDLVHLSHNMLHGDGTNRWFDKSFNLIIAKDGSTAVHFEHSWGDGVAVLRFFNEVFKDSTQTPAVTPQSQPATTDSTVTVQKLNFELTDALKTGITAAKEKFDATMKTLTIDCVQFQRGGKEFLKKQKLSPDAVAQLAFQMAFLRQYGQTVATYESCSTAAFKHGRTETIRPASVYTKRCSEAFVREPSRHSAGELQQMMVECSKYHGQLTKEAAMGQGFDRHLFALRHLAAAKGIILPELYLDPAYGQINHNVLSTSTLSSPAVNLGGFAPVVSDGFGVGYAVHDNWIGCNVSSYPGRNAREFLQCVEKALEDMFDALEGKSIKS

[8] = SUPPLEMENTARY: PAMPA permeability assay; assay type: physicochemical; conditions: read-out: Permeability

Row | IC50 [1] [nM] | logD [2] | IC50 [3] [nM] | IC50 [4] [nM] | solubility kinetic [5] [µg/mL] | IC50 [6] [nM] | IC50 [7] [nM] | Papp [8] [×10⁻⁶ cm/s] | SMILES
1 | 94200 | 2.57 | 61.6 | 121 | 62 (≈ 143 µM) | 82800 | 49000 | 0.95 | O=C1COc2ccc(-c3n[nH]c([C@H]4CCCCN4C(=O)COc4ccccc4)n3)cc2N1
2 | 2330 | 0.51 | 41.9 | 147 | 26 (≈ 51.1 µM) | > 100000 | > 100000 | 1.71 | COc1ccc(Cl)cc1CN1C(=O)OC(C)(C)c2ccc(C(=O)Nc3ccc(CC(=O)O)cc3)cc21
3 | > 100000 | 1.88 | 410 | 113 | 141 (≈ 346 µM) | 86300 | 24300 | 3.83 | NC(=O)c1cncc(-c2noc([C@H]3CCCCN3C(=O)COc3ccccc3)n2)c1
4 | > 100000 | 2.25 | 502 | 140 | 50 (≈ 112 µM) | > 100000 | 17000 | 0.47 | O=C(COc1ccccc1)N1CCCC[C@@H]1c1noc(-c2ccc3[nH]c(=O)c(=O)[nH]c3c2)n1
5 | 43400 | 2.75 | 282 | 201 | 63 (≈ 145 µM) | > 100000 | > 100000 | 2.93 | CC(=O)Nc1cccc(-c2nc([C@H]3CCCCN3C(=O)COc3ccccc3)n(C)n2)c1
6 | > 100000 | 2.12 | 1670 | 216 | 204 (≈ 442 µM) | 57300 | 19100 | 4.27 | O=C(c1nc([C@H]2CCCCN2C(=O)COc2ccccc2)no1)N1CCC(c2ccncc2)C1 (some centres not stated)
7 | 1210 | -0.06 | 38.5 | 67.9 | 277 (≈ 513 µM) | > 100000 | > 100000 | 2.22 | COc1ccc(Cl)cc1S(=O)(=O)N(C)c1cc(C(=O)Nc2ncc(CC(=O)O)s2)cc2c1OCO2
8 | > 100000 | 3.62 | 131 | 123 | < 1 | > 100000 | > 100000 | 1.35 | CC(=O)Nc1cc(F)cc(-c2noc([C@H]3CCCCN3C(=O)COc3ccccc3)n2)c1
9 | > 100000 | 3.56 | 190 | 164 | 1 (≈ 2.9 µM) | > 100000 | > 100000 | 0.61 | N#Cc1ccc(C#C[C@H]2CCCCN2C(=O)COc2ccccc2)cc1
10 | 42200 | 2.77 | 79.5 | 167 | 9 (≈ 17.7 µM) | 72200 | 32000 | 1.99 | O=C(Nc1ccc(C(=O)O)c(F)c1)c1ccc2c(c1)N(S(=O)(=O)c1cccc(C(F)(F)F)c1)CC2
11 | > 100000 | 2.62 | 102 | 65.1 | 127 (≈ 275 µM) | 58700 | 10300 | 3.43 | O=C1CN(c2cccc(-c3nc([C@H]4CCCCN4C(=O)COc4ccccc4)no3)c2)C(=O)N1
12 | 22600 | -0.42 | 575 | 232 | 195 (≈ 387 µM) | 24600 | 5450 | 0.57 | COc1ccc(Cl)cc1S(=O)(=O)N1CCOc2ccc(C(=O)Nc3ccc(C(=O)O)nc3)cc21
13 | > 100000 | 1.83 | 1190 | 325 | 161 (≈ 423 µM) | > 100000 | 97900 | 4.75 | O=C(COc1ccccc1)N1CCCC[C@@H]1c1nc(-c2ccc(=O)[nH]c2)no1
14 | 5650 | -0.79 | 144 | 218 | 558 (≈ 1030 µM) | > 100000 | > 100000 | 0.03 | COc1ccc(Cl)cc1S(=O)(=O)N1CCOc2c(Cl)cc(C(=O)Nc3ccn(CC(=O)O)n3)cc21
